According to ChEMBL document CHEMBL6134788, “Development of naphthalimide hydrazide derivatives as potent antibacterial agents against carbapenem-resistant A. baumannii” (RSC Med Chem, 2024):
In brackets after ≈: the same amount, converted by molar mass.

Tests used:
Format in all cases: functional
Conditions in all cases: time 16-18 hrs, read-out: MIC100
[1] = tested on: Acinetobacter baumannii; assay: Antibacterial activity against carbapenem-resistant Acinetobacter baumannii BAA 1605 assessed as inhibition of bacterial growth incubated for 16 to 18 hrs by CLSI protocol based method
[2] = tested on: Staphylococcus aureus; assay: Antibacterial activity against Staphylococcus aureus ATCC 29213 assessed as inhibition of bacterial growth incubated for 16 to 18 hrs by CLSI protocol based method
[3] = tested on: Klebsiella pneumoniae; assay: Antibacterial activity against Klebsiella pneumoniae BAA 1705 assessed as inhibition of bacterial growth incubated for 16 to 18 hrs by CLSI protocol based method
[4] = tested on: Pseudomonas aeruginosa; assay: Antibacterial activity against Pseudomonas aeruginosa ATCC 27853 assessed as inhibition of bacterial growth incubated for 16 to 18 hrs by CLSI protocol based method
[5] = tested on: Escherichia coli; assay: Antibacterial activity against Escherichia coli ATCC 25922 assessed as inhibition of bacterial growth incubated for 16 to 18 hrs by CLSI protocol based method
[6] = tested on: Acinetobacter baumannii; assay: Antibacterial activity against Acinetobacter baumannii ATCC 17978 assessed as inhibition of bacterial growth incubated for 16 to 18 hrs by CLSI protocol based method
[7] = tested on: Acinetobacter baumannii; assay: Antibacterial activity against multi-drug resistant Acinetobacter baumannii Naval-17 assessed as inhibition of bacterial growth incubated for 16 to 18 hrs by CLSI protocol based method
[8] = tested on: Acinetobacter baumannii; assay: Antibacterial activity against multi-drug resistant Acinetobacter baumannii clinical isolate 4 assessed as inhibition of bacterial growth incubated for 16 to 18 hrs by CLSI protocol based method
[9] = tested on: Acinetobacter baumannii; assay: Antibacterial activity against multi-drug resistant Acinetobacter baumannii clinical isolate 11 assessed as inhibition of bacterial growth incubated for 16 to 18 hrs by CLSI protocol based method
[10] = tested on: Acinetobacter baumannii; assay: Antibacterial activity against multi-drug resistant Acinetobacter baumannii 5-189 assessed as inhibition of bacterial growth incubated for 16 to 18 hrs by CLSI protocol based method
[11] = tested on: Acinetobacter baumannii; assay: Antibacterial activity against multi-drug resistant Acinetobacter baumannii clinical isolate 7 assessed as inhibition of bacterial growth incubated for 16 to 18 hrs by CLSI protocol based method
[12] = tested on: Acinetobacter baumannii; assay: Antibacterial activity against multi-drug resistant Acinetobacter baumannii WL-136 assessed as inhibition of bacterial growth incubated for 16 to 18 hrs by CLSI protocol based method
[13] = tested on: Acinetobacter baumannii; assay: Antibacterial activity against multi-drug resistant Acinetobacter baumannii Naval-18 assessed as inhibition of bacterial growth incubated for 16 to 18 hrs by CLSI protocol based method
[14] = tested on: Acinetobacter baumannii; assay: Antibacterial activity against multi-drug resistant Acinetobacter baumannii 5-143 assessed as inhibition of bacterial growth incubated for 16 to 18 hrs by CLSI protocol based method
[15] = tested on: Acinetobacter baumannii; assay: Antibacterial activity against multi-drug resistant Acinetobacter baumannii clinical isolate 9 assessed as inhibition of bacterial growth incubated for 16 to 18 hrs by CLSI protocol based method
[16] = tested on: Acinetobacter baumannii; assay: Antibacterial activity against multi-drug resistant Acinetobacter baumannii clinical isolate 10 assessed as inhibition of bacterial growth incubated for 16 to 18 hrs by CLSI protocol based method
[17] = tested on: Acinetobacter baumannii; assay: Antibacterial activity against multi-drug resistant Acinetobacter baumannii clinical isolate 1 assessed as inhibition of bacterial growth incubated for 16 to 18 hrs by CLSI protocol based method
[18] = tested on: Acinetobacter baumannii; assay: Antibacterial activity against multi-drug resistant Acinetobacter baumannii clinical isolate 12 assessed as inhibition of bacterial growth incubated for 16 to 18 hrs by CLSI protocol based method
[19] = tested on: Acinetobacter baumannii; assay: Antibacterial activity against multi-drug resistant Acinetobacter baumannii WL-487 assessed as inhibition of bacterial growth incubated for 16 to 18 hrs by CLSI protocol based method
[20] = tested on: Acinetobacter baumannii; assay: Antibacterial activity against multi-drug resistant Acinetobacter baumannii clinical isolate 6 assessed as inhibition of bacterial growth incubated for 16 to 18 hrs by CLSI protocol based method
[21] = tested on: Acinetobacter baumannii; assay: Antibacterial activity against multi-drug resistant Acinetobacter baumannii BC-5 assessed as inhibition of bacterial growth incubated for 16 to 18 hrs by CLSI protocol based method
[22] = tested on: Acinetobacter baumannii; assay: Antibacterial activity against multi-drug resistant Acinetobacter baumannii NR-17777 assessed as inhibition of bacterial growth incubated for 16 to 18 hrs by CLSI protocol based method
[23] = tested on: Acinetobacter baumannii; assay: Antibacterial activity against multi-drug resistant Acinetobacter baumannii clinical isolate 5 assessed as inhibition of bacterial growth incubated for 16 to 18 hrs by CLSI protocol based method
[24] = tested on: Acinetobacter baumannii; assay: Antibacterial activity against multi-drug resistant Acinetobacter baumannii 5-109 assessed as inhibition of bacterial growth incubated for 16 to 18 hrs by CLSI protocol based method
[25] = tested on: Acinetobacter baumannii; assay: Antibacterial activity against multi-drug resistant Acinetobacter baumannii Naval-81 assessed as inhibition of bacterial growth incubated for 16 to 18 hrs by CLSI protocol based method
[26] = tested on: Acinetobacter baumannii; assay: Antibacterial activity against multi-drug resistant Acinetobacter baumannii H72721 assessed as inhibition of bacterial growth incubated for 16 to 18 hrs by CLSI protocol based method
[27] = tested on: Acinetobacter baumannii; assay: Antibacterial activity against multi-drug resistant Acinetobacter baumannii clinical isolate 3 assessed as inhibition of bacterial growth incubated for 16 to 18 hrs by CLSI protocol based method
[28] = tested on: Acinetobacter baumannii; assay: Antibacterial activity against multi-drug resistant Acinetobacter baumannii clinical isolate 8 assessed as inhibition of bacterial growth incubated for 16 to 18 hrs by CLSI protocol based method
[29] = tested on: Acinetobacter baumannii; assay: Antibacterial activity against multi-drug resistant Acinetobacter baumannii clinical isolate 2 assessed as inhibition of bacterial growth incubated for 16 to 18 hrs by CLSI protocol based method
[30] = tested on: Acinetobacter baumannii; assay: Antibacterial activity against multi-drug resistant Acinetobacter baumannii 5-032 assessed as inhibition of bacterial growth incubated for 16 to 18 hrs by CLSI protocol based method

Which results are given for Cc1ccc(NNC(=O)CCN2C(=O)c3cccc4cccc(c34)C2=O)cc1?
MIC [1]: 4 µg/mL (≈ 10.7 µM); MIC [2]: > 64 µg/mL; MIC [3]: > 64 µg/mL; MIC [4]: > 64 µg/mL; MIC [5]: > 64 µg/mL

With O=C(CCN1C(=O)c2cccc3cccc(c23)C1=O)NNc1ccccc1Br as the molecule, how does the MIC [1] read?
The MIC was greater than 64 µg/mL.

And the MIC [2]?
Its MIC is greater than 64 µg/mL.

And the MIC [3]?
The MIC was greater than 64 µg/mL.

What about the MIC [4] of the same molecule?
The MIC was greater than 64 µg/mL.

And the MIC [5]?
The MIC was greater than 64 µg/mL.

NCC[C@H](O)C(=O)N[C@@H]1C[C@H](N)[C@@H](O[C@H]2O[C@H](CN)[C@@H](O)[C@H](O)[C@H]2O)[C@H](O)[C@H]1O[C@H]1O[C@H](CO)[C@@H](O)[C@H](N)[C@H]1O [AMIKACIN] was tested. Which MIC [1] did it give?
Its MIC is 4 µg/mL (≈ 6.83 µM).

What does the source list for CN(C)c1ccc(O)c2c1C[C@H]1C[C@H]3[C@H](N(C)C)C(O)=C(C(N)=O)C(=O)[C@@]3(O)C(O)=C1C2=O [MINOCYCLINE]?
MIC [6]: 0.125 µg/mL (≈ 0.273 µM); MIC [7]: 16 µg/mL (≈ 35 µM); MIC [1]: 2 µg/mL (≈ 4.37 µM); MIC [8]: 2 µg/mL (≈ 4.37 µM); MIC [9]: 2 µg/mL (≈ 4.37 µM); MIC [10]: 8 µg/mL (≈ 17.5 µM); MIC [11]: 8 µg/mL (≈ 17.5 µM); MIC [12]: 0.25 µg/mL (≈ 0.546 µM); MIC [13]: 1 µg/mL (≈ 2.19 µM); MIC [14]: 0.25 µg/mL (≈ 0.546 µM); MIC [15]: 4 µg/mL (≈ 8.74 µM); MIC [16]: 2 µg/mL (≈ 4.37 µM); MIC [17]: 2 µg/mL (≈ 4.37 µM); MIC [18]: 4 µg/mL (≈ 8.74 µM); MIC [19]: 0.25 µg/mL (≈ 0.546 µM); MIC [20]: 4 µg/mL (≈ 8.74 µM); MIC [21]: 2 µg/mL (≈ 4.37 µM); MIC [22]: 2 µg/mL (≈ 4.37 µM); MIC [23]: 8 µg/mL (≈ 17.5 µM); MIC [24]: 2 µg/mL (≈ 4.37 µM); MIC [25]: 1 µg/mL (≈ 2.19 µM); MIC [26]: 2 µg/mL (≈ 4.37 µM); MIC [27]: 1 µg/mL (≈ 2.19 µM); MIC [28]: 4 µg/mL (≈ 8.74 µM); MIC [29]: 2 µg/mL (≈ 4.37 µM); MIC [30]: 0.25 µg/mL (≈ 0.546 µM)

What does the source list for O=C(CCN1C(=O)c2cccc3cccc(c23)C1=O)NNc1ccc(Cl)cc1Cl?
MIC [1]: > 64 µg/mL; MIC [2]: > 64 µg/mL; MIC [3]: > 64 µg/mL; MIC [4]: > 64 µg/mL; MIC [5]: > 64 µg/mL

Which results are given for O=C(NNc1ccccc1)[C@@H](Cc1ccccc1)N1C(=O)c2cccc3cccc(c23)C1=O?
MIC [1]: 8 µg/mL (≈ 18.4 µM); MIC [2]: > 64 µg/mL; MIC [3]: > 64 µg/mL; MIC [4]: > 64 µg/mL; MIC [5]: > 64 µg/mL

NC[C@H]1O[C@H](O[C@H]2[C@H](O)[C@@H](O[C@H]3O[C@H](CO)[C@@H](O)[C@H](N)[C@H]3O)[C@H](N)C[C@@H]2N)[C@H](N)C[C@@H]1O [TOBRAMYCIN] was tested. Which MIC [1] did it give?
The MIC was 4 µg/mL (≈ 8.56 µM).

Cc1ccc(NNC(=O)CCN2C(=O)c3cccc4cccc(c34)C2=O)c(C)c1 was tested. Which MIC [1] did it give?
The MIC was greater than 64 µg/mL.

And the MIC [2]?
Its MIC is greater than 64 µg/mL.

What about the MIC [3] of the same molecule?
The MIC was greater than 64 µg/mL.

What about the MIC [4] of the same molecule?
The MIC was greater than 64 µg/mL.

What about the MIC [5] of the same molecule?
Its MIC is greater than 64 µg/mL.

How did the MIC [1] turn out when O=C(NNc1ccc(Br)cc1)[C@@H](Cc1ccccc1)N1C(=O)c2cccc3cccc(c23)C1=O was run?
Its MIC is 8 µg/mL (≈ 15.6 µM).

And the MIC [2]?
Its MIC is greater than 64 µg/mL.

What about the MIC [3] of the same molecule?
Its MIC is greater than 64 µg/mL.

And the MIC [4]?
The MIC was greater than 64 µg/mL.

What about the MIC [5] of the same molecule?
The MIC was greater than 64 µg/mL.

How did the MIC [1] turn out when O=C(CCN1C(=O)c2cccc3cccc(c23)C1=O)NNc1cc(Cl)cc(Cl)c1 was run?
Its MIC is greater than 64 µg/mL.

And the MIC [2]?
Its MIC is greater than 64 µg/mL.

And the MIC [3]?
The MIC was greater than 64 µg/mL.

And the MIC [4]?
The MIC was greater than 64 µg/mL.

What about the MIC [5] of the same molecule?
Its MIC is greater than 64 µg/mL.

O=C(CCN1C(=O)c2cccc3cccc(c23)C1=O)NNc1ccccc1Cl was tested. Which MIC [1] did it give?
Its MIC is greater than 64 µg/mL.

What about the MIC [2] of the same molecule?
The MIC was greater than 64 µg/mL.

And the MIC [3]?
The MIC was greater than 64 µg/mL.

What about the MIC [4] of the same molecule?
Its MIC is greater than 64 µg/mL.

And the MIC [5]?
The MIC was greater than 64 µg/mL.

What does the source list for COc1ccc(NNC(=O)CCN2C(=O)c3cccc4cccc(c34)C2=O)cc1?
MIC [1]: 4 µg/mL (≈ 10.3 µM); MIC [2]: > 64 µg/mL; MIC [3]: > 64 µg/mL; MIC [4]: > 64 µg/mL; MIC [5]: > 64 µg/mL

For O=C(CCN1C(=O)c2cccc3c(Br)ccc(c23)C1=O)NNc1ccc(Cl)cc1, which MIC [1] is on record?
Its MIC is 4 µg/mL (≈ 8.46 µM).

What about the MIC [2] of the same molecule?
The MIC was greater than 64 µg/mL.

What about the MIC [3] of the same molecule?
Its MIC is greater than 64 µg/mL.

What about the MIC [4] of the same molecule?
Its MIC is greater than 64 µg/mL.

What about the MIC [5] of the same molecule?
The MIC was greater than 64 µg/mL.

For N#Cc1ccc(NNC(=O)CCCCCN2C(=O)c3cccc4cccc(c34)C2=O)cc1, which MIC [1] is on record?
Its MIC is greater than 64 µg/mL.

What about the MIC [2] of the same molecule?
Its MIC is greater than 64 µg/mL.

And the MIC [3]?
Its MIC is greater than 64 µg/mL.

And the MIC [4]?
Its MIC is greater than 64 µg/mL.

And the MIC [5]?
The MIC was greater than 64 µg/mL.
